The values below come from patent US6294580A, “Substituted 4-hydroxy-phenylalcanoic acid derivatives with agonist activity to PPAR-gamma” (Glaxo Wellcome Inc., priority 1996, dated 2001).

What is called Ki is the dissociation constant of the complex between target and ligand, obtained from inhibition or displacement. In general, EC50 refers to the concentration at which the effect is half-maximal.

Structures can show the parent of a compound that is named as a salt. Where two headings read alike, the source gives them in different places.

In one data set the target is T1, hPPARgamma (Homo sapiens, UniProt P37231).
T1 construct: 10x-histidine tag (N); made in house; host or cells: E. coli
T1 sequence (P37231 195-475 isoform P37231-2): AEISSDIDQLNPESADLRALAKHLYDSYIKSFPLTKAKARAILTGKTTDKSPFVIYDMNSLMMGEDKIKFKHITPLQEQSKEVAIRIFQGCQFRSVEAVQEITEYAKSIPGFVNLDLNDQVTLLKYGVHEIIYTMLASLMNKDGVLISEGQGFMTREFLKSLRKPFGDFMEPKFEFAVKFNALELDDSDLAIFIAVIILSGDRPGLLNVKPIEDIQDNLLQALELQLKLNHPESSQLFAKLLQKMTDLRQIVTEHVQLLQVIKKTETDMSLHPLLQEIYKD
The experiment in a line: hPPARgamma Ligand Binding Assay. Conditions: competition with [3H]-BRL 49,653, room temperature 2 hrs.

Another data set has as its system PPARg. The experiment in a line: PPARgamma Transient Cotransfection Assay. Conditions: CAT reporter; for EC50: read-out: PPARg EC50. Format: cell-based.

Method for hPPARgamma: 2. hPPARgamma Ligand Binding Assay: The PPAR-gamma ligand binding domain (amino acids 195-475) was expressed with an N-terminal 10×-histidinetag in E. coli cells. The cells were lysed and receptor was purified by means of the epitope tag. The stock solution of protein was diluted to 200 nM in assay buffer (50 mM Tris, 50 mM KCl, pH 8 20 mM CHAPS, 2 mM EDTA 10 mM DTT (Fresh)) just before use.
Test compounds were prepared as 6 mM stock solutions in DMSO. […] The right-most column of wells was used for controls. […] Plates were incubated at room temperature for 2 hrs, and then cooled on ice for 30 minutes. 50 uL samples from each well of a single test plate were simultaneously loaded onto an equilibrated AGTC 96 well gel filtration block (Advanced Genetics Technology Corp.) using a Zymak Rapidplate automated pipettor. The block was placed on top of a clean microtiter plate and centrifuged @1,100×g for 4 min. 200 uL of scintillation fluid was added to each well, the plates were sealed and allowed to equilibrate for at least 4 hours before counting in a Wallac 1250 Microbeta counter.
Ki's were determined from a nonlinear least squares fit of the data to a simple competitive binding model.

For “2-(2-Benzoyl-phenylamino)-3-(4-{2-[3-(5-methyl-pyridin-2-yl)-propoxy]-ethoxyl}-phenyl)-propionic acid [Example 122]”, the Ki at hPPARgamma (read-out: PPARg Ki) worked out at 625 nM. The concentration giving a half-maximal response (EC50) with PPARg was 500 nM.
The matching figures for “3-{4-[2-(Benzoxazol-2-yl-methylamino)-ethoxy]-phenyl}-3-(4-benzoyl-thienylamino)-propionic acid [Example 108]”: 80 nM and 20 nM.
`Cc1oc(-c2ccccc2)nc1CCOc1ccc(CC(Nc2ccccc2C(=O)C2CCCCC2)C(=O)O)cc1` (single isomer, unassigned) [Example 53, 2-(2-Cyclohexanecarbonyl-phenylamino)-3-{4-[2-(5-methyl-2-phenyl-oxazol-4-yl)-ethoxy]-phenyl}-propionic acid]: the affinity on hPPARgamma (PPARg Ki) corresponds to a Ki of 70 nM. The EC50 with PPARg turned out to be 25 nM.
The matching figures for `Cc1oc(-c2ccccc2)nc1CCOc1ccc(CC(Nc2ccccc2C(=O)C2CCCCC2)C(=O)O)cc1` (single isomer, unassigned) [Example 54, 2-(2-Cyclohexanecarbonyl-phenylamino)-3-{4-[2-(5-methyl-2-phenyl-oxazol-4-yl)-ethoxy]-phenyl}-propionic acid]: 3000 nM and 250 nM.
`CC(=CC(=O)c1ccccc1)N[C@@H](Cc1ccc(OCc2ccccc2)cc1)C(=O)O` [Example 1, 3-(4-Benzyloxy-phenyl)-2(S)-(1-methyl-3-oxo-3-phenyl-propenylamino)-propionic acid dicyclohexylamine salt] displayed a Ki at hPPARgamma (PPARg Ki) of 55 nM. In the data set on PPARg, the “PPARg Fold. Act.” value was found to be 26 and the EC50 was 60 nM.
Regarding `COC(=O)[C@H](Cc1ccc(OCc2ccccc2)cc1)NC(C)=CC(=O)c1ccccc1` [Example 2, 3-(4-Benzyloxy-phenyl)-2(S)-(1-methyl-3-oxo-3-phenyl-propenylamino)-propionic acid methyl ester], the Ki on hPPARgamma (PPARg Ki) came out at 1000 nM. Moreover, in the data set on PPARg, the “PPARg Fold. Act.” value turned out to be 23 and the EC50 is 100 nM.
The compound `O=C(c1ccccc1)c1ccccc1NC(Cc1ccc(OCc2ccccc2)cc1)C(=O)O` (centres unmarked) [Example 4, 2-(2-benzoylphenylamino)-3-(4-benzyloxyphenyl) propanoic acid] displayed a Ki on hPPARgamma (PPARg Ki) of 1000 nM. In the data set with PPARg, the “PPARg Fold. Act.” value is listed as 20 and the EC50 was determined as 3000 nM.
The matching figures for `COC(=O)C(Cc1ccc(OCc2ccccc2)cc1)Nc1ccccc1C(=O)OCc1ccccc1` (centres unmarked) [Example 5]: over 3000 nM, 10 and 9000 nM.
`O=C(c1ccccc1)c1ccsc1NC(Cc1ccc(OCc2ccccc2)cc1)C(=O)O` (centres unmarked) [Example 8, 2-(3-Benzoyl-thiophen-2-yl-amino)-3-(4-benzyloxy-phenyl)-propionic acid] yielded a Ki at hPPARgamma (PPARg Ki) of 21 nM. In addition, the EC50 with PPARg was found to be 720 nM.
In turn, `O=C(c1ccccc1)c1sccc1NC(Cc1ccc(OCc2ccccc2)cc1)C(=O)O` (centres unmarked) [Example 9, 2-(2-Benzoyl-thiophen-3-yl-amino)-3-(4-benzyloxy-phenyl)-propionic acid] showed a Ki at hPPARgamma (PPARg Ki) of 700 nM. For the same compound, the EC50 in the data set on PPARg was determined as 630 nM.
For `COC(=O)[C@H](Cc1ccc(OCc2ccccc2)cc1)NC(=O)c1coc2ccccc2c1=O` [Example 10, 3-(4-Benzyloxy-phenyl)-2(S)-[(4-oxo-4H-chromene-3-carbonyl)-amino]-propionic acid methyl ester], in that order: 300 nM and 170 nM.
On hPPARgamma (PPARg Ki), `CCOC(=O)C(Cc1ccc(OCCN(C)c2ccccn2)cc1)Nc1ccccc1C(=O)c1ccccc1` (centres unmarked) [Example 13, 2-(2-Benzoyl-phenylamino)-3-{4-[2-(methyl-pyridin-2-yl-amino)-ethoxy]-phenyl}-propionic acid ethyl ester] had an inhibitory constant (Ki) of 1300 nM. The half-maximal effective concentration (EC50) with PPARg is 60 nM.
In turn, `CC(=CC(=O)c1ccccc1)NC(Cc1ccc(OCCN(C)c2ccccn2)cc1)C(=O)O` (centres unmarked) [Example 14, 2-(1-Methyl-oxo-3-phenyl-propenylamino)-3{4-[2-(methyl-pyridin-2-yl-amino)-ethoxy]-phenyl}-propionic acid dicyclohexylamine salt] returned an inhibitory constant (Ki) at hPPARgamma (PPARg Ki) of 80 nM. In the data set on PPARg, the “PPARg Fold. Act.” value is given as 18 and the EC50 amounted to 1 nM.
At hPPARgamma (PPARg Ki), `CN(CCOc1ccc(CC(Nc2ccccc2C(=O)c2ccccc2)C(=O)O)cc1)c1nc2ccccc2o1` (centres unmarked) [Example 15, 3-{4-[2-(benzoxazol-2-yl-methyl-amino)-ethoxy]-phenyl}-2-(2-benzoyl-phenylamino)-propionic acid] showed a Ki of 40 nM. In addition, the EC50 in the data set on PPARg stood at 1 nM.
In the case of `CC(=CC(=O)c1ccccc1)N[C@@H](Cc1ccc(OCCN(C)c2nc3ccccc3o2)cc1)C(=O)O` [Example 17, 3-{4-[2-(Benzoxazol-2yl-methyl-amino)-ethoxy]-phenyl}-2(S)-(1-methyl-3-oxo-3-phenyl-propenylamino)-propionic acid dicyclohexylamine salt], the Ki on hPPARgamma (PPARg Ki) is 80 nM. For the same compound, the EC50 in the data set on PPARg came to 1 nM.
As to `CC(=CC(=O)c1cccc(I)c1)N[C@@H](Cc1ccc(OCCN(C)c2nc3ccccc3o2)cc1)C(=O)O` [Example 18, 3-{4-[2-(Benzoxazol-2-yl-methyl-amino)-ethoxy]-phenyl}-2(S)-[3-(3-iodo-phenyl)-1-methyl-3-oxo-propenylamino]-propionic acid dicyclohexylamine salt], affinity at hPPARgamma (PPARg Ki) was put at a Ki of 10 nM. In addition, in the data set on PPARg, the EC50 is 5 nM.
In the case of `Cc1ccc(NC(Cc2ccc(OCCN(C)c3nc4ccccc4o3)cc2)C(=O)O)c(C(=O)c2ccccc2)c1` (centres unmarked) [Example 19, 3-{4-[2-(benzoxazol-2-yl-methyl-amino)-ethoxy]-phenyl}-2-(2-benzoyl-4-methyl-phenylamino)-propionic acid], at hPPARgamma (PPARg Ki), affinity was put at a Ki of 185 nM. Besides, the EC50 in the data set with PPARg stood at 65 nM.
For `CN(CCOc1ccc(CC(Nc2ccc(Cl)cc2C(=O)c2ccccc2)C(=O)O)cc1)c1nc2ccccc2o1` (centres unmarked) [Example 20, 3-{4-[2-(benzoxazol-2-yl-methyl-amino)-ethoxy]-phenyl}-2-(2-benzoyl-4-chloro-phenylamino)-propionic acid], in that order: 180 nM and 120 nM.
For `O=C(c1ccccc1)c1ccccc1NC(Cc1ccc(OC2CCN(c3nc4ccccc4o3)C2)cc1)C(=O)O` (centres unmarked) [Example 21, 3-[4-(1-Benzoxazol-2-yl-pyrrolidin-3-yloxy)-phenyl]-2-(2-benzoyl-phenylamino)-propionic acid], in that order: 530 nM and 150 nM.
For `O=C(c1ccccc1)c1ccccc1NC(Cc1ccc(OC[C@H]2CCCN2c2nc3ccccc3o2)cc1)C(=O)O` (some centres unmarked) [Example 22], in that order: 65 nM and 20 nM.
At hPPARgamma (PPARg Ki), `O=C(c1ccccc1)c1ccccc1NC(Cc1ccc(OC[C@@H]2CCCN2c2nc3ccccc3o2)cc1)C(=O)O` (some centres unmarked) [Example 23] showed a Ki of 50 nM. For the same compound, the EC50 in the data set with PPARg came out at 1 nM.
In turn, `CN(CCOc1ccc(CC(Nc2ccccc2C(=O)C2CCCCC2)C(=O)O)cc1)c1nc2ccccc2o1` (centres unmarked) [Example 24, 3-{4-[2-(Benzoxazol-2-yl-methyl-amino)-ethoxy]-phenyl}-2-(2-cyclohexanecarbonyl-phenylamino)-propionic acid] came in with a Ki at hPPARgamma (PPARg Ki) of 30 nM. Also, the EC50 in the data set with PPARg turned out to be 1 nM.
For `CN(CCOc1ccc(CC(Nc2ccsc2C(=O)c2ccccc2)C(=O)O)cc1)c1nc2ccccc2o1` (centres unmarked) [Example 25], in that order: 70 nM and 1 nM.
For the compound `CN(CCOc1ccc(CC(Cc2ccccc2)C(=O)O)cc1)c1nc2ccccc2o1` (centres unmarked) [Example 26, 3-{4-[2-(Benzoxazol-2-yl-methyl-amino)-ethoxy]-phenyl}-2-benzyl-propionic acid trifluoroacetate], the Ki on hPPARgamma (PPARg Ki) came to 1900 nM. For the same compound, in the data set with PPARg, the EC50 worked out at 670 nM.
The matching figures for `CN(CCOc1ccc(CC(Cc2ccccc2Br)C(=O)O)cc1)c1nc2ccccc2o1` (centres unmarked) [Example 27, 3-{4-[2-(Benzoxazol-2-yl-methyl-amino)-ethoxy]-phenyl}-2-(2-bromo-benzyl)-propionic acid trifluoroacetate]: 300 nM and 400 nM.
The matching figures for `O=C(c1ccccc1)c1ccccc1NC(Cc1ccc(OCc2csc(-c3ccc(Cl)cc3)n2)cc1)C(=O)O` (centres unmarked) [Example 30, 2-(2-Benzoyl-phenylamino)-3-{4-[2-(4-chlorophenyl)-thiazol-4ylmethoxy]-phenyl}-propionic acid]: 300 nM and 50 nM.
The matching figures for `O=C(c1ccccc1)c1ccccc1NC(Cc1ccc(OCCn2cnc3ccccc32)cc1)C(=O)O` (centres unmarked) [Example 31, 3-[4-(2-Benzoimidazol-1-yl-ethoxy)-phenyl]-2-(2-benzoyl-phenylamino)-propionic acid]: 145 nM and 450 nM.
For `Cc1nnsc1-c1nc(CCOc2ccc(C[C@H](Nc3ccccc3C(=O)c3ccccc3)C(=O)O)cc2)c(C)s1` [Example 41, 2(S)-(2-benzoyl-phenylamino)-3-(4-{2-[5-methyl-2-(4-methyl[1,2,3]thiadiazol-5-yl)-thiazol-4-yl]ethoxy}-phenyl)-propionic acid], the inhibitory constant (Ki) at hPPARgamma (PPARg Ki) came to 70 nM. In addition, in the data set with PPARg, the concentration giving a half-maximal response (EC50) was 5 nM.
`Cc1oc(-c2ccccc2)nc1CCOc1ccc(C[C@H](Nc2ccccc2C(=O)NCCCN)C(=O)O)cc1` [Example 90, 2-(S)-(1-carboxy-2-{4-{2-(5-methyl-2-phenyl-oxazol-4-yl)-ethoxy]-phenyl}-ethylamino)-benzoic acid 3-aminopropyl amide hydrochloride] came in with a Ki at hPPARgamma (PPARg Ki) of 3000 nM.
